Values quoted from earlier work as cited in patent US20070148240A1, “Oral formulation containing itraconazole and methods for manufacturing and using the same” (priority 2005, published 2007).

Assays:
[1] = test system: plasma proteins
[2] = not given; remark: listed apart in the source
[3] = test system: fungi

In the case of `CCC(C)n1ncn(-c2ccc(N3CCN(c4ccc(OC[C@H]5CO[C@](Cn6cncn6)(c6ccc(Cl)cc6Cl)O5)cc4)CC3)cc2)c1=O` (mixture of isomers) [itraconazole, (±)-cis-4-[4-[4-[4-[[2-(2,4-dichlorophenyl)-2-(1H-1,2,4-triazol-1-ylmethyl)-1,3-dioxolan-4-yl]methoxy]phenyl]-1-piperazinyl]phenyl]-2,4-dihydro-2-(1-methylpropyl)-3H-1,2,4-triazol-3-one], the “time to reach peak concentration in plasma” value (after being taken by patients) is listed as 3 to 4 h, the “concentration in blood relative to that in plasma” value (human, in vivo) is listed as “about 60%” and the “itraconazole in original form excreted in feces” value (human, in vivo) is listed as 3-18%. For the same molecule, the “itraconazole in original form secreted in urine” value (human, in vivo) was at most 0.03%, the plasma half life (human, in vivo) was 24 to 36 h and the “itraconazole metabolites secreted in urine” value (within a week after uptake of the drug) was “About 35%”. The “binding rate with plasma proteins” value [1] was 99.8%, the solubility in acids ([2]; in acids such as hydrochloric acid, acetic acid, phosphoric acid and methylsulfonic acid) was “easily soluble” and the solubility in ethanol ([2]; in ethanol) was “low”. The “solubility in methylene chloride” value ([2]; in methylene chloride) was “easily soluble” and the solubility in water ([2]; in water) was “less than 1 μg/ml”.

For hydroxy-itraconazole, the “antifungal activity in vitro” value [3] is listed as “has been demonstrated in vitro to have antifungal activity”.
